From US9359297B2, “Spirolactam derivatives and uses of same” (H. Lundbeck A/S, priority 2009, dated 2016)

Target: T1, human metabotropic glutamate receptor 5 (hmGluR5) (Homo sapiens, UniProt P41594)
T1 construct: expressed in transfected cells
Assay: Calcium mobilization (FLIPR) assay for negative allosteric modulation, EC80 glutamate, hmGluR5 in HEK 293
Format: cell-based
Settings: HEK293; hmGluR5, inhibition of EC80 glutamate response; read-out: FLIPR maximum inhibition
Protocol: The cDNA for rat metabotropic glutamate receptor 5 (rmGluR5) and the cDNA for human metabotropic glutamate receptor 5 (hmGluR5) were generous gifts from S. Nakanishi (Kyoto University, Kyoto, Japan). The rmGluR5 or hmGluR5 was stably expressed in a HEK 293 cell line and grown in Dulbecco's Modified Eagle Medium (DMEM) (Invitrogen, Carlsbad, Calif.) with supplements (10% bovine calf serum, 4 mM glutamine, 100 units/mL penicillin, 100 μg/mL streptomycin and 0.75 mM G1418) at 37° C., 5% CO2. Twenty-four hours prior to assay, cells were seeded into 384-well black wall microtiter plates coated with poly-D-lysine. Just prior to assay, media was aspirated and cells dye-loaded (25 μL/well) with 3 μM Fluo-4/0.01% pluronic acid in assay buffer (Hank's Balanced Saline Solution (HBSS)): 150 mM NaCl, 5 mM KCl, 1 mM CaCl2, 1 mM MgCl2, plus 20 mM N-2-Hydroxyethylpiperazine-N′-2-ethanesulfonic acid (HEPES), pH 7.4, 0.1% bovine serum albumin (BSA) and 2.5 mM probenicid) for 1 hour in 5% CO2 at 37° C. After excess dye was discarded, cells were washed in assay buffer and layered with a final volume equal to 30 μL/well. Basal fluorescence is monitored in a fluorometric imaging plate reader (FLIPR) (Molecular Devices, Sunnyvale, Calif.) with an excitation wavelength of 488 nm and an emission range of 500 to 560 nm. Laser excitation energy was adjusted so that basal fluorescence readings were approximately 10,000 relative fluorescent units. Cells were stimulated with an EC20 or an EC80 concentration of glutamate in the presence of a compound to be tested, both diluted in assay buffer, and relative fluorescent units were measured at defined intervals (exposure=0.6 sec) over a 3 min period at room temperature. Basal readings derived from negative controls were subtracted from all samples. Maximum change in fluorescence was calculated for each well. Concentration-response curves derived from the maximum change in fluorescence were analyzed by nonlinear regression (Hill equation). A negative modulator can be identified from these concentration-response curves if a compound produces a concentration dependent inhibition of the EC80 glutamate response.

T1 sequence (P41594 21-1212): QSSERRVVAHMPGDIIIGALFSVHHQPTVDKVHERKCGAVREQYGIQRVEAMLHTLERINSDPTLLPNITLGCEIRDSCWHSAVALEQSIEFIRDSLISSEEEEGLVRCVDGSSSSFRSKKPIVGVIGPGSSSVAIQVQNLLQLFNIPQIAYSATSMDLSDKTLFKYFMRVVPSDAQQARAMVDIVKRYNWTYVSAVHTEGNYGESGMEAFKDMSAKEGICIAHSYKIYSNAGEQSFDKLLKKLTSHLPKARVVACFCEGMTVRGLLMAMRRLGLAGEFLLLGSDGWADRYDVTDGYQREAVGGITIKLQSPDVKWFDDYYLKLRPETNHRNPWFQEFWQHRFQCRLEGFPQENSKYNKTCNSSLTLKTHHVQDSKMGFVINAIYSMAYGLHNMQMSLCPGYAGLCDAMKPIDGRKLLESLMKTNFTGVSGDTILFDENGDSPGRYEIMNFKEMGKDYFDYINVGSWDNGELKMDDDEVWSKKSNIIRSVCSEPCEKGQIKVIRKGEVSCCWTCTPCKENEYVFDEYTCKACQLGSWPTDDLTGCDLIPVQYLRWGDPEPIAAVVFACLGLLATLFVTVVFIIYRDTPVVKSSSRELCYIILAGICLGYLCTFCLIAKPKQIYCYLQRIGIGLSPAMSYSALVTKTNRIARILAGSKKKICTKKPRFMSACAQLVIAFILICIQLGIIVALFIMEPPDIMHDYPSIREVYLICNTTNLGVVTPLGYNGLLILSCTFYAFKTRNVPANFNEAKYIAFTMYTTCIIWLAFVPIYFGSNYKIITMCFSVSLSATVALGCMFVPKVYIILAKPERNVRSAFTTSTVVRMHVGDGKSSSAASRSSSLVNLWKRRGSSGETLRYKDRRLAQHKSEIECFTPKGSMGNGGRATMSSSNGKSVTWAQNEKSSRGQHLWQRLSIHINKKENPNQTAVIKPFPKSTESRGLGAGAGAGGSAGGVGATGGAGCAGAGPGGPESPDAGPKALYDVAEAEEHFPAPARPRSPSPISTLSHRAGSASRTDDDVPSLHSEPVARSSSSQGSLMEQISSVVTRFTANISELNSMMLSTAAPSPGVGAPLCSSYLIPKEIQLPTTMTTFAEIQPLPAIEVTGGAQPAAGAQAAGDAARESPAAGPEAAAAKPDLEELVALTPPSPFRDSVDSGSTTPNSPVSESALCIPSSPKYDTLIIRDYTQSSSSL

Row | Emax | SMILES
1 | 73 to 95% | Cc1nccc(N2CC[C@]3(CCC[C@H](NC(=O)c4cccc(Cl)c4)C3)C2=O)n1 (racemic) [Example 58]
2 | 73 to 95% | Cc1nccc(C(=O)N[C@H]2CCC[C@]3(CCN(c4cc(F)cc(F)c4)C3=O)C2)n1 (racemic) [Example 76, cis 2-Methyl-pyrimidine-4-carboxylic acid [2-(3,5-difluoro-phenyl)-1-oxo-2-aza-spiro[4.5]dec-7-yl]-amide]
3 | 73 to 95% | Cc1cc(C(=O)N[C@H]2CCC[C@]3(CCN(c4cccc(F)c4)C3=O)C2)ccn1 (racemic) [Example 78, cis-N-[2-(3-Fluoro-phenyl)-1-oxo-2-aza-spiro[4.5]dec-7-yl]-2-methyl-isonicotinamide]
4 | 73 to 95% | Cc1cccc(C(=O)N[C@H]2CCC[C@]3(CCN(c4ccnc(C)n4)C3=O)C2)c1 (racemic) [Example 84, cis-3-Methyl-N-[2-(2-methyl-pyrimidin-4-yl)-1-oxo-2-aza-spiro [4.5]dec-7-yl]-benzamide]
5 | 88 to 93% | O=C(N[C@@H]1CC(F)(F)C[C@@]2(CCN(c3cccc(F)c3)C2=O)C1)c1ccccn1 (racemic) [Example 97, cis-Pyridine-2-carboxylic acid [9,9-difluoro-2-(3-fluoro-phenyl)-1-oxo-2-aza-spiro[4.5]dec-7-yl]-amide]
6 | 47 to 93% | Cc1cccc(C(=O)N[C@@H]2CC(F)(F)C[C@@]3(CCN(c4ccc(F)cn4)C3=O)C2)n1 (racemic) [Example 109, cis-6-Methyl-pyridine-2-carboxylic acid [9,9-difluoro-2-(5-fluoro-pyridin-2-yl)-1-oxo-2-aza-spiro[4.5]dec-7-yl]-amide]
7 | 47 to 93% | O=C(N[C@@H]1CC(F)(F)C[C@@]2(CCN(c3cc(F)cc(F)c3)C2=O)C1)c1ccccn1 (racemic) [Example 110, cis-Pyridine-2-carboxylic acid [2-(3,5-difluoro-phenyl)-9,9-difluoro-1-oxo-2-aza-spiro[4.5]dec-7-yl]-amide]
8 | 47 to 93% | Cc1nccc(N2CC[C@@]3(C[C@@H](NC(=O)c4cccc(F)c4)CC(F)(F)C3)C2=O)n1 (racemic) [Example 128, cis-N-[9,9-Difluoro-2-(2-methyl-pyrimidin-4-yl)-1-oxo-2-aza-spiro[4.5]dec-7-yl]-3-fluoro-benzamide]
9 | 47 to 93% | Cc1nccc(C(=O)N[C@@H]2CC(F)(F)C[C@@]3(CCN(c4cccc(F)c4)C3=O)C2)n1 (racemic) [Example 129, cis-2-Methyl-pyrimidine-4-carboxylic acid [9,9-difluoro-2-(3-fluoro-phenyl)-1-oxo-2-aza-spiro[4.5]dec-7-yl]-amide]
10 | 73 to 95% | Cc1cncc(N2CC[C@]3(CCC[C@H](NC(=O)c4ccnc(C)n4)C3)C2=O)n1 (relative stereo) [Example 59, cis-2-Methyl-pyrimidine-4-carboxylic acid [2-(6-methyl-pyrazin-2-yl)-1-oxo-2-aza-spiro[4.5]dec-7-yl]-amide]
11 | 73 to 95% | Cc1nccc(C(=O)N[C@H]2CCC[C@]3(CCN(c4cccc(C#N)c4)C3=O)C2)n1 (relative stereo) [Example 60, cis-2-Methyl-pyrimidine-4-carboxylic acid [2-(3-cyano-phenyl)-1-oxo-2-aza-spiro [4.5]dec-7-yl]-amide]
12 | 73 to 95% | Cc1nccc(C(=O)N[C@H]2CCC[C@]3(CCN(c4cccc(C(F)(F)F)n4)C3=O)C2)n1 (relative stereo) [Example 61, cis-2-Methyl-pyrimidine-4-carboxylic acid [1-oxo-2-(6-trifluoromethyl-pyridin-2-yl)-2-aza-spiro[4.5]dec-7-yl]-amide]
13 | 73 to 95% | Cc1cccc(C(=O)N[C@H]2CCC[C@]3(CCN(c4ccnc(C)n4)C3=O)C2)n1 (relative stereo) [Example 62, cis-6-methyl-pyridine-2-carboxylic acid [2-(2-methyl-pyrimidin-4-yl)-1-oxo-2-aza-spiro[4.5]dec-7-yl]-amide]
14 | 73 to 95% | Cc1ccc(N2CC[C@]3(CCC[C@H](NC(=O)c4cccc(C)n4)C3)C2=O)cn1 (relative stereo) [Example 63, cis-6-Methyl-pyridine-2-carboxylic acid [2-(6-methyl-pyridin-3-yl)-1-oxo-2-aza-spiro[4.5]dec-7-yl]-amide]
15 | 73 to 95% | Cc1cccc(C(=O)N[C@H]2CCC[C@]3(CCN(c4cncc(F)c4)C3=O)C2)n1 (relative stereo) [Example 64, cis-6-Methyl-pyridine-2-carboxylic acid [2-(5-fluoro-pyridin-3-yl)-1-oxo-2-aza-spiro[4.5]dec-7-yl]-amide]
16 | 73 to 95% | Cc1nccc(N2CC[C@]3(CCC[C@H](NC(=O)c4cccc(F)c4)C3)C2=O)n1 (relative stereo) [Example 65, cis-3-Fluoro-N-[2-(2-methyl-pyrimidin-4-yl)-1-oxo-2-aza-spiro[4.5]dec-7-yl]-benzamide]
17 | 73 to 95% | Cc1cc(N2CC[C@]3(CCC[C@H](NC(=O)c4cccc(F)c4)C3)C2=O)ccn1 (relative stereo) [Example 66, cis-3-Fluoro-N-[2-(2-methyl-pyridin-4-yl)-1-oxo-2-aza-spiro[4.5]dec-7-yl]-benzamide]
18 | 73 to 95% | O=C(N[C@H]1CCC[C@]2(CCN(c3cccc(F)c3)C2=O)C1)c1ccc(F)cn1 (relative stereo) [Example 68, cis-5-Fluoro-pyridine-2-carboxylic acid [2-(3-fluoro-phenyl)-1-oxo-2-aza-spiro [4.5]dec-7-yl]-amide]
19 | 73 to 95% | Cc1nccc(C(=O)N[C@H]2CCC[C@]3(CCN(c4cccc(F)c4)C3=O)C2)n1 (relative stereo) [Example 69, cis-2-Methyl-pyrimidine-4-carboxylic acid [2-(3-fluoro-phenyl)-1-oxo-2-aza-spiro[4.5]dec-7-yl]-amide]
20 | 73 to 95% | O=C(N[C@H]1CCC[C@]2(CCN(c3cccc(F)c3)C2=O)C1)c1ccncn1 (relative stereo) [Example 70, cis-Pyrimidine-4-carboxylic acid [2-(3-fluoro-phenyl)-1-oxo-2-aza-spiro [4.5]dec-7-yl]-amide]
21 | 73 to 95% | Cc1cncc(N2CC[C@]3(CCC[C@H](NC(=O)c4cccc(C)n4)C3)C2=O)c1 (relative stereo) [Example 71, cis-6-Methyl-pyridine-2-carboxylic acid [2-(5-methyl-pyridin-3-yl)-1-oxo-2-aza-spiro[4.5]dec-7-yl]-amide]
22 | 73 to 95% | COc1cccc(N2CC[C@]3(CCC[C@H](NC(=O)c4cccc(C)n4)C3)C2=O)c1 (relative stereo) [Example 72, cis-6-Methyl-pyridine-2-carboxylic acid [2-(3-methoxy-phenyl)-1-oxo-2-aza-spiro[4.5]dec-7-yl]-amide]
23 | 73 to 95% | O=C(N[C@H]1CCC[C@]2(CCN(c3cncc(F)c3)C2=O)C1)c1ccccn1 (relative stereo) [Example 74, cis-Pyridine-2-carboxylic acid [2-(5-fluoro-pyridin-3-yl)-1-oxo-2-aza-spiro[4.5]dec-7-yl]-amide]
24 | 73 to 95% | O=C(N[C@H]1CCC[C@]2(CCN(c3ccc(F)c(F)c3)C2=O)C1)c1ccccn1 (relative stereo) [Example 75, cis-Pyridine-2-carboxylic acid [2-(3,4-difluoro-phenyl)-1-oxo-2-aza-spiro[4.5]dec-7-yl]-amide]
25 | 73 to 95% | O=C(N[C@H]1CCC[C@]2(CCN(c3cccc(F)c3)C2=O)C1)c1ccncc1 (relative stereo) [Example 77, cis-N-[2-(3-Fluoro-phenyl)-1-oxo-2-aza-spiro[4.5]dec-7-yl]-isonicotinamide]
26 | 73 to 95% | O=C(N[C@H]1CCC[C@]2(CCN(c3cc(F)cc(F)c3)C2=O)C1)c1ccncn1 (relative stereo) [Example 79, cis-Pyrimidine-4-carboxylic acid [2-(3,5-difluoro-phenyl)-1-oxo-2-azaspiro[4.5]dec-7-yl]-amide]
27 | 73 to 95% | Cc1cccc(C(=O)N[C@H]2CCC[C@]3(CCN(Cc4ccccc4)C3=O)C2)n1 (relative stereo) [Example 83, cis-6-methyl-pyridine-2-carboxylic acid (2-benzyl-1-oxo-2-aza-spiro[4.5]dec-7-yl)-amide]
28 | 73 to 95% | Cc1nccc(N2CC[C@]3(CCC[C@H](NC(=O)c4cc(F)cc(F)c4)C3)C2=O)n1 (relative stereo) [Example 85, cis-3,5-Difluoro-N-[2-(2-methyl-pyrimidin-4-yl)-1-oxo-2-aza-spiro [4.5]dec-7-yl]-benzamide]
29 | 73 to 95% | Cc1cncc(C(=O)N[C@H]2CCC[C@]3(CCN(c4cc(-c5ccc(F)cc5)ncn4)C3=O)C2)n1 (relative stereo) [Example 86, cis-6-Methyl-pyrazine-2-carboxylic acid {2-[6-(4-fluoro-phenyl)-pyrimidin-4-yl]-1-oxo-2-aza-spiro [4.5]dec-7-yl}-amide]
